Source: patent US6399782B1, “Benzimidazole inhibitors of fructose 1,6-bisphosphatase” (Metabasis Therapeutics, Inc., priority 1997, dated 2002)
Structures can show the parent of a compound that is named as a salt.

Compound	melting point
CC(C)Cn1c(-c2ccc(P(=O)(O)O)o2)nc2ccc(F)cc21 [Compound 13.27, 6-Fluoro-1-isobutyl-2-(2-phosphono-5-furanyl)benzimidazole]	202 to 205 °C
C=Cc1cc(F)c(N)c2nc(-c3ccc(P(=O)(O)O)o3)n(CC(C)C)c12 [Compound 12.70, 4-Amino-7-vinyl-5-fluoro-1-isobutyl-2-(2-phosphono-5-furanyl)benzimidazole]	238 to 242 °C
CC(C)Cn1c(-c2ccc(P(=O)(O)O)o2)nc2c(N)c(F)cc(CCCCCl)c21 [Compound 12.83, 4-Amino-5-fluoro-7-(4-chlorobutyl)-1-isobutyl-2-(2-phosphono-5-furanyl)benzimidazole]	210 to 220 °C (dec.)
CC(C)n1c(-c2ccc(P(=O)(O)O)o2)nc2cc(Cl)ccc21 [Compound 13.33, 5-Chloro-1-isopropyl-2-(2-phosphono-5-furanyl)benzimidazole]	192 to 195 °C
CCCc1ccc2c(nc(-c3ccc(P(=O)(O)O)o3)n2CC(C)C)c1N [Compound 12.60, 4-Amino-5-propyl-1-isobutyl-2-(2-phosphono-5-furanyl)benzimidazole]	207 to 210 °C
CC(C)Cn1c(-c2ccc(P(=O)(O)O)o2)nc2c(N)c(O)ccc21 [Compound 11.1, 4-Amino-5-hydroxy-1-isobutyl-2-(2-phosphono-5-furanyl)benzimidazole]	206 to 209 °C
O=P(O)(O)c1ccc(-c2nc3ccccc3[nH]2)o1 [Compound 13.1, 2-(2-Phosphono-5-furanyl)benzimidazole]	> 250 °C
CC(C)Cn1c(-c2ccc(P(=O)(O)O)o2)nc2c(F)c(F)c(F)cc21 [Compound 12.78, 4,5,6-Trifluoro-1-isobutyl-2-(2-phosphono-5-furanyl)benzimidazole]	155 to 158 °C
CC(C)Cn1c(-c2ccc(P(=O)(O)O)o2)nc2ccccc21 [Compound 13.2, 1-Isobutyl-2-(2-phosphono-5-furanyl)benzimidazole]	200 to 203 °C
CCC(CC)n1c(-c2ccc(P(=O)(O)O)o2)nc2c(N)c(F)ccc21 [Compound 12.76, 4-Amino-5-fluoro-1-(3-pentyl)-2-(2-phosphono-5-furanyl)benzimidazole]	180 to 185 °C (dec.)
CC(C)Cn1c(-c2ccc(P(=O)(O)O)o2)nc2c(N)c(F)cc(-c3ccc(Cl)cc3)c21 [Compound 12.69, 4-Amino-7-p-chlorophenyl-5-fluoro-1-isobutyl-2-(2-phosphono-5-furanyl)benzimidazole]	235 to 236 °C (dec.)
CC(C)Cn1c(-c2ccc(P(=O)(O)O)o2)nc2cc(Cl)ccc21 [Compound 13.16, 5-Chloro-1-isobutyl-2-(2-phosphono-5-furanyl)benzimidazole]	238 °C
CCc1cc(F)c(N)c2nc(-c3ccc(P(=O)(O)O)o3)n(CC3CC3)c12 [Compound 12.75, 4-Amino-7-ethyl-5-fluoro-1-cyclopropylmethyl-2-(2-phosphono-5-furanyl)benzimidazole]	178 to 185 °C
CC(C)Cn1c(-c2ccc(P(=O)(O)O)o2)nc2c(Cl)cc(Cl)cc21 [Compound 13.39, 4,6-Dichloro-1-isobutyl-2-(2-phosphono-5-furanyl)benzimidazole]	155 to 175 °C
O=C(O)c1ccccc1-n1c(-c2ccc(P(=O)(O)O)o2)nc2cc(Cl)ccc21 [Compound 13.13, 1-(2-Carboxyphenyl)-2-(2-phosphono-5-furanyl)-5-chloro benzimidazole]	220 to 224 °C
Cl.NCCCCn1c(-c2ccc(P(=O)(O)O)o2)nc2cc(Cl)ccc21 (hydrate or solvate)	236 to 240 °C (dec.)
COc1cccc(-c2cc(F)c(N)c3nc(-c4ccc(P(=O)(O)O)o4)n(CC(C)C)c23)c1 [Compound 12.74, 4-Amino-7-m-methoxyphenyl-5-fluoro-1-isobutyl-2-(2-phosphono-5-furanyl)benzimidazole]	208 to 212 °C (dec.)
CCCc1cc(F)c(N)c2nc(-c3ccc(P(=O)(O)O)o3)n(CC(C)C)c12 [Compound 12.81, 4-Amino-5-fluoro-7-n-propyl-1-isobutyl-2-(2-phosphono-5-furanyl)benzimidazole]	220 to 230 °C (dec.)
CCC(CC)Cn1c(-c2ccc(P(=O)(O)O)o2)nc2c(N)c(F)ccc21 [Compound 12.73, 4-Amino-5-fluoro-1-(2-ethylbutyl)-2-(2-phosphono-5-furanyl)benzimidazole]	178 to 182 °C (dec.)
CC(C)Cn1c(-c2ccc(P(=O)(O)O)o2)nc2c(N)c(F)cc(C3CC3)c21 [Compound 12.66, 4-Amino-7-cyclopropyl-5-fluoro-1-isobutyl-2-(2-phosphono-5-furanyl)benzimidazole]	250 to 255 °C (dec.)
Nc1c(Br)c(Cl)c(Cl)c2nc(-c3ccc(P(=O)(O)O)o3)[nH]c12 [Compound 12.58, 4-Amino-5-bromo-6,7-dichloro-2-(2-phosphono-5-furanyl)benzimidazole]	224 to 225 °C
CC(C)Cn1c(-c2ccc(P(=O)(O)O)o2)nc2c(N)c(F)cc(CCCN(C)C)c21 (as salt: hydrobromid) [Compound 12.84, 4-Amino-5-fluoro-7-(3-N,N-dimethylpropylamine)-1-isobutyl-2-(2-phosphono-5-furanyl)benzimidazole hydrobromide salt]	208 to 212 °C (dec.)
CC(C)COc1cccc2c1nc(-c1ccc(P(=O)(O)O)o1)n2CC(C)C [Compound 13.20, 1-Isobutyl-4-isobutyloxy-2-(2-phosphono-5-furanyl)benzimidazole]	350 °C
CC(C)Cn1c(-c2ccc(P(=O)(O)O)o2)nc2c(N)c(F)cc(-c3ccc(F)cc3)c21 [Compound 12.68, 4-Amino-7-p-fluorophenyl-5-fluoro-1-isobutyl-2-(2-phosphono5-furanyl)benzimidazole]	239 to 240 °C (dec.)
COc1ccc2c(nc(-c3ccc(P(=O)(O)O)o3)n2CC(C)C)c1N [Compound 12.55, 4-Amino-5-methoxy-1-isobutyl-2-(2-phosphono-5-furanyl)benzimidazole]	212 to 213 °C
CCc1cc(F)c(N)c2c1nc(-c1ccc(P(=O)(O)O)o1)n2CC(C)C [Compound 12.65, 7-Amino-4-ethyl-6-fluoro-1-isobutyl-2-(2-phosphono-5-furanyl)benzimidazole]	249 to 250 °C
CC(C)Cn1c(-c2ccc(P(=O)(O)O)o2)nc2cc(F)c(F)c(F)c21 [Compound 12.77, 5,6,7-Trifluoro-1-isobutyl-2-(2-phosphono-5-furanyl)benzimidazole]	250 to 260 °C

Further lines, results first:

melting point	Compound
208 to 211 °C	CC(C)Cn1c(-c2ccc(P(=O)(O)O)o2)nc2cc(F)c(N)c(Br)c21 [Compound 13.69, 1-Isobutyl-5-fluoro-6-amino-7-bromo-2-(2-phosphono-5-furanyl)benzimidazole]
180 to 210 °C	O=P(O)(O)c1ccc(-c2nc3cc(Cl)c(Cl)cc3n2CC2CC2)o1 [Compound 13.45, 5,6-Dichloro-1-cyclopropylmethyl-2-(2-phosphono-5-furanyl)benzimidazole]
205 to 209 °C	Cc1c(Br)cc2c(nc(-c3ccc(P(=O)(O)O)o3)n2CC(C)C)c1C [Compound 13.53, 4,5-Dimethyl-6-bromo-1-isobutyl-2-(2-phosphono-5-furanyl)benzimidazole]
150 to 210 °C	CC(C)Cn1c(-c2ccc(P(=O)(O)O)o2)nc2c(Br)cc(Br)cc21 [Compound 13.43, 4,6-Dibromo-1-isobutyl-2-(2-phosphono-5-furanyl)benzimidazole]
225 to 227 °C	CC(C)Cn1c(-c2ccc(P(=O)(O)O)o2)nc2cc(Cl)c(Cl)cc21 [Compound 13.44, 5,6-Dichloro-1-isobutyl-2-(2-phosphono-5-furanyl)benzimidazole]
212 to 216 °C	Cc1c(Cl)cc2c(nc(-c3ccc(P(=O)(O)O)o3)n2CCCCBr)c1C [Compound 13.90, 1-(4-Bromobutyl)-4,5-dimethyl-6-chloro-2-(2-phosphono-5-furanyl)benzimidazole]
217 to 221 °C (dec.)	CC(=O)Nc1c(F)cc2nc(-c3ccc(P(=O)(O)O)o3)n(CC(C)C)c2c1Br [Compound 13.76, 1-Isobutyl-5-fluoro-6-acetamido-7-bromo-2-(2-phosphono-5-furanyl)benzimidazole]
165 to 190 °C	CCc1c(Cl)c(F)cc2[nH]c(-c3ccc(P(=O)(O)O)o3)nc12 [Compound 13.80, 5-Fluoro-6-chloro-7-ethyl-2-(2-phosphono-5-furanyl)benzimidazole]
196 to 200 °C	Cc1cc(C)c2c(c1)nc(-c1ccc(P(=O)(O)O)o1)n2CC(C)C (hydrate or solvate) [Compound 13.87, 1-Isobutyl-5,7-dimethyl-2-(2-phosphono-5-furanyl)benzimidazole]
208 to 211 °C	Cc1cccc2c1nc(-c1ccc(P(=O)(O)O)o1)n2CC(C)C [Compound 13.54, 4-Methyl-1-isobutyl-2-(2-phosphono-5-furanyl)benzimidazole]
209 to 212 °C	Cc1cc(C)c2nc(-c3ccc(P(=O)(O)O)o3)n(CC(C)C)c2c1 (hydrate or solvate) [Compound 13.85, 1-Isobutyl-4,6-dimethyl-2-(2-phosphono-5-furanyl)benzimidazole]
250 to 252 °C (dec.)	NCCCCn1c(-c2ccc(P(=O)(O)O)o2)nc2ccc(Cl)cc21 (hydrate or solvate) [Compound 13.95, 1-(4-Aminobutyl)-6-chloro-2-(2-phosphono-5-furanyl)benzimidazole]
196 to 199 °C	CC(C)Cn1c(-c2ccc(P(=O)(O)O)o2)nc2cc(Cl)c(F)cc21 [Compound 13.50, 5-Chloro-6-fluoro-1-isobutyl-2-(2-phosphono-5-furanyl)benzimidazole]
161 to 165 °C	CC(C)Cn1c(-c2ccc(P(=O)(O)O)o2)nc2cc(F)c([N+](=O)[O-])c(Br)c21 [Compound 13.68, 1-Isobutyl-5-fluoro-6-nitro-7-bromo-2-(2-phosphono-5-furanyl)benzimidazole]
